Measured values from patent publication US20020006942A1, “Methods of treating liver disorders and disorders associated with liver function” (priority 2000, published 2002).

How the values were obtained:
[1] = system: cytokine mRNAs (TNFα, TGF-β1, IL1β) in THP-1 cells; test: Cytokine mRNA expression by THP-1 cells (RNase protection assay); assay type: cell-based, human; settings: 100 μM, 48 h
From the text: Hepatic cytokine mRNAs were quantitated using RNase protection assays, as follows. In vitro transcribed [α-^32P]-UTP labeled -antisense cytokine probes were generated using cytokine multi-probe template kits: Mouse mCK-2 (catalog # 45002P) and Mouse mCK-3 (catalog #45003P) (PharMingen International) and a MAXIscript in vitro transcription kit (catalog #1314) using T7 RNA polymerase per manufacturer instructions. The radiolabeled probes were eluted through G25 Sephadex columns (Boehringer Mannheim) to remove unincorporated nucleotides. RNase protection assays were performed with HybSpeed RPA kits (catalog #1412) (Ambion Inc.) according to the manufacturers specifications. For each reaction, 20 fig of total RNA was hybridized to approximately 50,000 cpm of the antisense cytokine probes and digested with a mixture of RNase A and RNase T1. The protected RNA fragments were separated via a 5% denaturing acrylamide gel. PhosporImager (Molecular Dynamics) analysis was used to visualize the protected RNA fragments. […] Cells were harvested and polyA mRNA extracted, as described above. The content of human cytokines mRNAs were quantited by RNase protection assays, as described above except human template kits were used (Human hCK-2-catalog # 45032P and Human hCK-3-catalog # 45033P) (PharMingen International).

[2] = system: CYP7A1 mRNA expression by rat hepatoma L35 cells; test: Direct treatment of L35 cells, CYP7A1 mRNA relative to β-actin; assay type: cell-based
[3] = system: CYP7A1; settings: bile acid infused; Heuman et al., 1989; cited from earlier work
[4] = system: hepatic CYP7A1 mRNA; test: Hepatic CYP7A1 mRNA relative to GAPDH in C57BL/6 mice on chow or bile acid-containing atherogenic diet; assay type: in vivo, mouse; settings: chow-fed mice, 1 mg/ml daily by oral gavage, p=ns
From the text: Female C3H/HeJ and [MUT] mice 10-12 weeks old (Jackson Laboratory, Bar Harbor, Me.) were housed in a room with a normal light cycle (lights on from 0600 to 1800) fed water ad libitum with either normal Purina breeder chow or ground Purina breeder chow supplemented with 20% olive oil, 2% cholesterol and 0.5% taurocholic acid (bile acid-contaning atherogenic diet) and water ad libitum. Mice were maintained on this diet for 3 weeks. After 3 weeks, mice were sacrificed at 0900. […] Mice were sacrificed at 0900 and blood was obtained for subsequent analysis. Livers were extracted for RNA, and polyA RNA was isolated, as described (Dueland, et al., 1993, J. Lipid.Res. 34:923-931; Dueland, et al., 1997, J. Lipid Res. 38:1445-1453). Poly A MRNA was blotted onto nitrocellulose and probed with ^32P-labeled cDNA encoding rat CYP7A1 and GAPDH (Duelandet al., 1993, J. Lipid Res. 34:923-931; Dueland, et al., 1997, J. Lipid Res. 38:1445-1453). The relative abundance of CYP7A1 mRNA to GAPDH mRNA was determined using Phosphorimager quantitation (Molecular Biosystems).

Molecule: C[C@H](CCC(=O)O)[C@H]1CC[C@H]2[C@@H]3[C@H](O)C[C@@H]4C[C@H](O)CC[C@]4(C)[C@H]3CC[C@]12C [CDCA, chenodeoxycholic acid]
- induction of TNFα, TGF-β1 and IL1β mRNAs by THP-1 cells [1]: > 10 fold
- CYP7A1 expression by L35 cells ([2]; CDCA 100 μM added directly to L35 cells, 24 hours): unaffected
- ability to repress CYP7A1 [3]: potent repressor

Molecule: TNFa
- expression of CYP7A1 by L35 cells ([2]; human TNFa alone, 24 h): repressed

Molecule: CN(CCOc1ccc(CC2SC(=O)NC2=O)cc1)c1ccccn1 (stereo not drawn) [rosiglitazone]
- decrease in the expression of CYP7A1 [4]: 30%

Molecule: C[C@H](CCC(=O)O)[C@H]1CC[C@H]2[C@@H]3[C@@H](O)C[C@@H]4C[C@H](O)CC[C@]4(C)[C@H]3CC[C@]12C [UDCA, ursodeoxycholic acid]
- ability to repress CYP7A1 [3]: does not repress
